Calls of active or inactive are those of the source. The calls are words filed in the database; no cut-off is given here. Residues, ends and D or L forms follow the SMILES beside them.
How the values were obtained:
Stromelysin-1 = Stromelysin-1 (Homo sapiens, UniProt P08254); test: Inhibition of human MMP3 catalytic subunit by fluorometric analysis
[1] = Solubility in water at 1 mg/ml; assay type: physicochemical; settings: buffer
Cartilage tissue [2] = test: Antiinflammatory activity against bovine normal hyaline femoral condyles cartilage assessed as reduction in IL-1beta/OSM-induced collagen release at 6 to 127 uM incubated for 21 days with media replenishment for every 7 days relative to control; assay type: functional, tissue-based; settings: Bos taurus, dose 6-127 µM, time 21.0 day
[3] = Cytotoxicity against mouse BALB/3T3 cells clone A31 incubated for 24 hrs by Alamar blue assay; assay type: cell-based; settings: BALB/3T3 clone A31, 24 h
Cartilage tissue [4] = test: Antiinflammatory activity against bovine normal hyaline femoral condyles cartilage assessed as reduction in IL-1beta/OSM-induced collagen release at 93 uM incubated for 21 days with media replenishment for every 7 days relative to control; assay type: functional, tissue-based; settings: Bos taurus, time 21.0 day

Chain of Stromelysin-1 (P08254 whole entry): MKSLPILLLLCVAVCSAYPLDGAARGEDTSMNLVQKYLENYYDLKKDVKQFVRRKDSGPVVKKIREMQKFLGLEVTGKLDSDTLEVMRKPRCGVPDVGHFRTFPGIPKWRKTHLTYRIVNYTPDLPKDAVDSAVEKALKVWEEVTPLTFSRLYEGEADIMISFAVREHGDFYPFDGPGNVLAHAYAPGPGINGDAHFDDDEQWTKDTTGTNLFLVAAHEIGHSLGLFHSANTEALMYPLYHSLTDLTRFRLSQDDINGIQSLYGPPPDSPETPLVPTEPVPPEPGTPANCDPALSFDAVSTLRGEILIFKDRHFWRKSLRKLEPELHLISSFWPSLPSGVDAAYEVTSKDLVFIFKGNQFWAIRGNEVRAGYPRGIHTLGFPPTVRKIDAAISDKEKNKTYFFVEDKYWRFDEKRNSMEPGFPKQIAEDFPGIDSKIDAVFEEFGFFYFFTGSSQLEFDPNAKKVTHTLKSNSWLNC

SMILES	IC50 (Stromelysin-1)	solubility [1]	Activity (Cartilage tissue [2])	IC50 [3]	Activity (Cartilage tissue [4])
CCCCCCCCC/C=C/CCCCCCCC(=O)N[C@@H](CS)C(=O)NCC(=O)N[C@@H](CCCNC(=N)N)C(=O)O	> 50 µM	Insoluble			
CCCC[C@H](NC(=O)CNC(=O)[C@H](CS)NC(=O)[C@H](CCCNC(=N)N)NC(C)=O)C(N)=O (HELM PEPTIDE1{[ac].R.C.G.[Nle].[am]}$$$$V2.0)	79.5 µM	Soluble			
CC(C)[C@H](NC(=O)CNC(=O)[C@H](CS)NC(=O)[C@@H](N)CCCNC(=N)N)C(N)=O (H-RCGV-NH2)	173 µM	Soluble			
CC(=O)N[C@@H](CCCNC(=N)N)C(=O)N[C@@H](CS)C(=O)NCC(=O)N[C@H](C(N)=O)C(C)C (Ac-RCGV-NH2)	10.2 µM	Soluble	Active	253 µM	
CCCCCCCCNC(=O)C[C@H](NC(=O)CNC(=O)[C@H](CS)NC(=O)[C@H](CCCNC(=N)N)NC(C)=O)C(N)=O (HELM PEPTIDE1{[ac].R.C.G.D.[am]}|CHEM1{[CCCCCCCCN[*:1]]}$PEPTIDE1,CHEM1,5:R3-1:R1$$$V2.0)	61.4 µM	Soluble			
CC(=O)N[C@@H](CS)C(=O)NCC(=O)N[C@@H](CCCNC(=N)N)C(=O)O (Ac-Cys-Gly-Arg-OH)	850 µM	Insoluble			
CCCCCCCCCCCC(=O)N[C@@H](CS)C(=O)NCC(=O)N[C@@H](CCCNC(=N)N)C(=O)N[C@@H](CCCCN)C(=O)O (HELM PEPTIDE1{[CCCCCCCCCCCC(=O)[*:2]].C.G.R.K}$$$$V2.0)	3.2 µM	Soluble		186 µM	Active
CCCCCCCCNC(=O)C[C@H](NC(=O)CNC(=O)[C@H](CS)NC(=O)[C@@H](N)CCCNC(=N)N)C(N)=O (HELM PEPTIDE1{R.C.G.D.[am]}|CHEM1{[CCCCCCCCN[*:1]]}$PEPTIDE1,CHEM1,4:R3-1:R1$$$V2.0)	> 200 µM	Insoluble			
CC(=O)N[C@@H](CS)C(=O)NCC(=O)N[C@@H](CCCNC(=N)N)C(=O)N[C@@H](CCCCN)C(=O)O (Ac-CGRK-OH)	> 50 µM	Soluble			
CC(=O)N[C@@H](CCCNC(=N)N)C(=O)N[C@@H](CS)C(=O)NCC(N)=O (Ac-Arg-Cys-Gly-NH2)	95.3 µM	Soluble			
CCCCCCCCCCCC(=O)N[C@@H](CS)C(=O)NCC(=O)N[C@@H](CCCNC(=N)N)C(=O)O (HELM PEPTIDE1{[CCCCCCCCCCCC(=O)[*:2]].C.G.R}$$$$V2.0)	7 µM	Insoluble			
CCCCCCCC(=O)N[C@@H](CS)C(=O)NCC(=O)N[C@@H](CCCNC(=N)N)C(=O)O (HELM PEPTIDE1{[CCCCCCCC(=O)[*:2]].C.G.R}$$$$V2.0)	4.4 µM	Insoluble			

Reference: ChEMBL document CHEMBL4814066, “Amphiphilic peptide-based MMP3 inhibitors for intra-articular treatment of knee OA” (Bioorg Med Chem, 2021)
